Where two headings read alike, the source gives them in different places.

For one experiment, the target named is KRas G12C (Homo sapiens, UniProt P01116, C118S/C51S/C80L/G12C). The experiment is described as follows: KRas G12C Modification Assay (LCMS detection of covalent adduct). The experiment is classed as binding. The conditions noted are these: normalized percent of control; tested at 5 μM concentration for 3 hours. The gist of the method:
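Covalent modification was read by reverse-phase LC/MS of intact protein after compound exposure, each reaction stopped at its time point with 25 mM acetic acid. Unmodified-protein signal, taken as percent of total, was normalised to untreated protein and reported as POC.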

Experiment [1] has as its system NCI-H358 cells (express KRas G12C), Phospho-ERK. The experiment is described as follows: Cellular inhibition of KRas G12C: Phospho-ERK in NCI-H358 cells. The note with it: Homo sapiens, pERK(Thr202/Tyr204) normalized with GAPDH, NCI-H358 cells, 3 hours, read-out: IC50. Format: cell-based. The gist of the method: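 IC50 derived by 4-parameter fit of GAPDH-normalized pERK(Thr202/Tyr204) signal, as percent of DMSO control. Signal came from in-cell immunodetection with infrared secondaries after 3 h compound exposure of KRas G12C NCI-H358 cells at 0.5% DMSO.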

As usually defined, the IC50 is the point on the concentration scale where inhibition reaches its midpoint. Regarding `C=CC(=O)N1CCN(c2nc(OC[C@@H]3CCCN3C)nc3c2CCN(c2cccc4c(F)cccc24)C3)CC1CC#N` (stereo partly drawn) [Example 254, 2-[4-[7-(5-fluoro-1-naphthyl)-2-[[(2S)-1-methylpyrrolidin-2-yl]methoxy]-6,8-dihydro-5H-pyrido[3,4-d]pyrimidin-4-yl]-1-prop-2-enoyl-piperazin-2-yl]acetonitrile], the POC entry on KRas G12C was “C (“C”>50% POC)”. Further, in experiment [1] (NCI-H358, 3 h), the concentration for half-maximal inhibition (IC50) lay within 0.1 to 1000 nM.

For the compound `C=CC(=O)N1CCN(c2nc(OC[C@@H]3CCCN3C)nc3c2CCN(c2cccc4ccc(OC)cc24)C3)CC1CC#N` (stereo partly drawn) [Example 255, 2-[4-[7-(7-methoxy-1-naphthyl)-2-[[(2S)-1-methylpyrrolidin-2-yl]methoxy]-6,8-dihydro-5H-pyrido[3,4-d]pyrimidin-4-yl]-1-prop-2-enoyl-piperazin-2-yl]acetonitrile], the POC entry at KRas G12C is listed as “A (“A”≤25% POC)”. Further, the half-inhibitory concentration (IC50) in experiment [1] (NCI-H358, 3 h) was above 1000 nM.

For `C=CC(=O)N1CCN(c2nc(OC[C@@H]3CCCN3C)nc3c2CCN(c2cccc4ccccc24)C3)CC1COC` (stereo partly drawn) [Example 256, 1-(2-(methoxymethyl)-4-(2-(((S)-1-methylpyrrolidin-2-yl)methoxy)-7-(naphthalen-1-yl)-5,6,7,8-tetrahydropyrido[3,4-d]pyrimidin-4-yl)piperazin-1-yl)prop-2-en-1-one], the POC entry at KRas G12C is given as “C (“C”>50% POC)”. Moreover, the concentration for half-maximal inhibition (IC50) in experiment [1] (NCI-H358, 3 h) was above 1000 nM.

`C=CC(=O)N1CCN(c2nc(OC[C@@H]3CCCN3C)nc3c2CCN(c2nccc4ccccc24)C3)CC1CC#N` (stereo partly drawn) [Example 258, 2-[4-[7-(1-isoquinolyl)-2-[[(2S)-1-methylpyrrolidin-2-yl]methoxy]-6,8-dihydro-5H-pyrido[3,4-d]pyrimidin-4-yl]-1-prop-2-enoyl-piperazin-2-yl]acetonitrile]: the POC result on KRas G12C is given as “C (“C”>50% POC)”. Also, the IC50 in experiment [1] (NCI-H358, 3 h) is above 1000 nM.

As to `C=CC(=O)N1CCN(c2nc(OC[C@@H]3CCCN3C)nc3c2CCN(c2cccc4cc(F)ccc24)C3)CC1CC#N` (stereo partly drawn) [Example 259, 2-[4-[7-(6-fluoro-1-naphthyl)-2-[[(2S)-1-methylpyrrolidin-2-yl]methoxy]-6,8-dihydro-5H-pyrido[3,4-d]pyrimidin-4-yl]-1-prop-2-enoyl-piperazin-2 yl]acetonitrile], on KRas G12C, the POC result is “C (“C”>50% POC)”. Moreover, the half-maximal inhibitory concentration (IC50) in experiment [1] (NCI-H358, 3 h) lay within 0.1 to 1000 nM.

Regarding `C=CC(=O)N1CCN(c2nc(OC[C@@H]3CCCN3C)nc3c2CCN(c2cncc4ccccc24)C3)CC1CC#N` (stereo partly drawn) [Example 260, 2-[4-[7-(4-isoquinolyl)-2-[[(2S)-1-methylpyrrolidin-2-yl]methoxy]-6,8-dihydro-5H-pyrido[3,4-d]pyrimidin-4-yl]-1-prop-2-enoyl-piperazin-2-yl]acetonitrile], the POC result at KRas G12C was “C (“C”>50% POC)”. In addition, in experiment [1] (NCI-H358, 3 h), the half-inhibitory concentration (IC50) was in the range of 0.1 to 1000 nM.

`C=C(C)C(=O)N1CCN(c2nc(OC[C@@H]3CCCN3C)nc3c2CCN(c2cccc4ccccc24)C3)CC1CC#N` (stereo partly drawn) [Example 261, 2-[1-(2-methylprop-2-enoyl)-4-[2-[[(2S)-1-methylpyrrolidin-2-yl]methoxy]-7-(1-naphthyl)-6,8-dihydro-5H-pyrido[3,4-d]pyrimidin-4-yl]piperazin-2-yl]acetonitrile]: the POC entry at KRas G12C is listed as “A (“A”≤25% POC)”. The concentration for half-maximal inhibition (IC50) in experiment [1] (NCI-H358, 3 h) was above 1000 nM.

`C=CC(=O)N1CCN(c2nc(OC[C@@H]3CCCN3C)nc3c2CCN(c2cccc4cnccc24)C3)CC1CC#N` (stereo partly drawn) [Example 262, 2-[4-[7-(5-isoquinolyl)-2-[[(2S)-1-methylpyrrolidin-2-yl]methoxy]-6,8-dihydro-5H-1-pyrido[3,4-d]pyrimidin-4-yl]-1-prop-2-enoyl-piperazin-2-yl]acetonitrile]: at KRas G12C, the POC result was “A (“A”≤25% POC)”. Besides, the IC50 in experiment [1] (NCI-H358, 3 h) was above 1000 nM.

As for `C/C=C/C(=O)N1CCN(c2nc(OC[C@@H]3CCCN3C)nc3c2CCN(c2cccc4ccccc24)C3)CC1CC#N` (stereo partly drawn) [Example 263, 2-[1-[(E)-but-2-enoyl]-4-[2-[[(2S)-1-methylpyrrolidin-2-yl]methoxy]-7-(1-naphthyl)-6,8-dihydro-5H-pyrido[3,4-d]pyrimidin-4-yl]piperazin-2-yl]acetonitrile], at KRas G12C, the POC entry is “C (“C”>50% POC)”. In addition, the 50% inhibitory concentration (IC50) in experiment [1] (NCI-H358, 3 h) was in the range of 0.1 to 1000 nM.

Regarding `C=CC(=O)N1CCN(c2nc(OC[C@@H]3CCCN3C)nc3c2CCN(c2cccc4ncccc24)C3)CC1CC#N` (stereo partly drawn) [Example 264, 2-[4-[2-[[(2S)-1-methylpyrrolidin-2-yl]methoxy]-7-(5-quinolyl)-6,8-dihydro-5H-pyrido[3,4-d]pyrimidin-4-yl]-1-prop-2-enoyl-piperazin-2-yl]acetonitrile], on KRas G12C, the POC result is reported as “C (“C”>50% POC)”. Moreover, in experiment [1] (NCI-H358, 3 h), the IC50 is above 1000 nM.

Regarding `C=CC(=O)N1CCN(c2nc(OC[C@@H]3CCCN3C)nc3c2CCN(c2cccc(C)c2C(F)(F)F)C3)CC1CC#N` (stereo partly drawn) [Example 265, 2-(1-acryloyl-4-(7-(3-methyl-2-(trifluoromethyl)phenyl)-2-(((S)-1-methylpyrrolidin-2-yl)methoxy)-5,6,7,8-tetrahydropyrido[3,4-d]pyrimidin-4-yl)piperazin-2-yl)acetonitrile], the POC entry on KRas G12C was “C (“C”>50% POC)”. Also, the half-maximal inhibitory concentration (IC50) in experiment [1] (NCI-H358, 3 h) is 0.1 to 1000 nM.

On to `C=CC(=O)N1CCN(c2nc(OC[C@@H]3CCCN3CCOC)nc3c2CCN(c2cccc4ccccc24)C3)CC1CC#N` (stereo partly drawn) [Example 266, 2-(1-acryloyl-4-(2-(((S)-1-(2-methoxyethyl)pyrrolidin-2-yl)methoxy)-7-(naphthalen-1-yl)-5,6,7,8-tetrahydropyrido[3,4-d]pyrimidin-4-yl)piperazin-2-yl)acetonitrile], for which the POC entry on KRas G12C was “C (“C”>50% POC)”. Moreover, the IC50 in experiment [1] (NCI-H358, 3 h) lay within 0.1 to 1000 nM.

`C=CC(=O)N1CCN(c2nc(OC[C@H]3CCCN3C)nc3c2CCN(c2cccc4ccccc24)C3)C[C@@H]1CC#N` [Example 267, 2-((S)-1-acryloyl-4-(2-(((R)-1-methylpyrrolidin-2-yl)methoxy)-7-(naphthalen-1-yl)-5,6,7,8-tetrahydropyrido[3,4-d]pyrimidin-4-yl)piperazin-2-yl)acetonitrile]: the POC result on KRas G12C is “C (“C”>50% POC)”. Besides, in experiment [1], the IC50 lay in the range of 0.1 to 1000 nM.

As to `C=CC(=O)N1CCN(c2nc(OC[C@@H]3C[C@@H](OC)CN3C)nc3c2CCN(c2cccc4ccccc24)C3)CC1CC#N` (stereo partly drawn) [Example 268, 2-(1-acryloyl-4-(2-(((2S,4R)-4-methoxy-1-methylpyrrolidin-2-yl)methoxy)-7-(naphthalen-1-yl)-5,6,7,8-tetrahydropyrido[3,4-d]pyrimidin-4-yl)piperazin-2-yl)acetonitrile], the POC entry at KRas G12C is recorded as “C (“C”>50% POC)”. Moreover, the IC50 in experiment [1] (NCI-H358, 3 h) was 0.1 to 1000 nM.

As for `C=CC(=O)N1CCN(c2nc(OCC(C)(C)N(C)C)nc3c2CCN(c2cccc4ccccc24)C3)CC1CC#N` (stereo not shown) [Example 269, 2-(1-acryloyl-4-(2-(2-(dimethylamino)-2-methylpropoxy)-7-(naphthalen-1-yl)-5,6,7,8-tetrahydropyrido[3,4-d]pyrimidin-4-yl)piperazin-2-yl)acetonitrile], on KRas G12C, the POC result is given as “C (“C”>50% POC)”. Moreover, the half-inhibitory concentration (IC50) in experiment [1] (NCI-H358, 3 h) lay in the range of 0.1 to 1000 nM.

As to `C=CC(=O)N1CCN(c2nc(OC[C@H]3CN(C)CCO3)nc3c2CCN(c2cccc4ccccc24)C3)CC1CC#N` (stereo partly drawn) [Example 270, 2-(1-acryloyl-4-(2-(((R)-4-methylmorpholin-2-yl)methoxy)-7-(naphthalen 1-yl)-5,6,7,8-tetrahydropyrido[3,4-d]pyrimidin-4-yl)piperazin-2-yl)acetonitrile], the POC result at KRas G12C is listed as “C (“C”>50% POC)”. Also, in experiment [1] (NCI-H358, 3 h), the IC50 is 0.1 to 1000 nM.

As to `C=CC(=O)N1CCN(c2nc(OC[C@@H]3CN(C)CCO3)nc3c2CCN(c2cccc4ccccc24)C3)CC1CC#N` (stereo partly drawn) [Example 271, 2-(1-acryloyl-4-(2-(((S)-4-methylmorpholin-2-yl)methoxy)-7-(naphthalen-1-yl)-5,6,7,8-tetrahydropyrido[3,4-d]pyrimidin-4-yl)piperazin-2-yl)acetonitrile], the POC result at KRas G12C is given as “C (“C”>50% POC)”. Moreover, the IC50 in experiment [1] (NCI-H358, 3 h) is 0.1 to 1000 nM.

Take `C=CC(=O)N1CCN(c2nc(OC[C@@H]3COCCN3C)nc3c2CCN(c2cccc4ccccc24)C3)CC1CC#N` (stereo partly drawn) [Example 272, 2-(1-acryloyl-4-(2-(((S)-4-methylmorpholin-3-yl)methoxy)-7-(naphthalen-1-yl)-5,6,7,8-tetrahydropyrido[3,4-d]pyrimidin-4-yl)piperazin-2-yl)acetonitrile]: on KRas G12C, the POC result was “C (“C”>50% POC)”. Besides, the 50% inhibitory concentration (IC50) in experiment [1] (NCI-H358, 3 h) was 0.1 to 1000 nM.

Take `C=CC(=O)N1CCN(c2nc(OC[C@H]3COCCN3C)nc3c2CCN(c2cccc4ccccc24)C3)CC1CC#N` (stereo partly drawn) [Example 273, 2-(1-acryloyl-4-(2-(((R)-4-methylmorpholin-3-yl)methoxy)-7-(naphthalen-1-yl)-5,6,7,8-tetrahydropyrido[3,4-d]pyrimidin-4-yl)piperazin-2-yl)acetonitrile]: the POC entry on KRas G12C was “C (“C”>50% POC)”. Moreover, the IC50 in experiment [1] (NCI-H358, 3 h) was above 1000 nM.

Turning to `C=CC(=O)N1CCN(c2nc(OC[C@H]3CCCN3C)nc3c2CCN(c2cccc(F)c2C(F)(F)F)C3)C[C@@H]1CC#N` [Example 274, 2-((S)-1-acryloyl-4-(7-(3-fluoro-2-(trifluoromethyl)phenyl)-2-(((R)-1-methylpyrrolidin-2-yl)methoxy)-5,6,7,8-tetrahydropyrido[3,4-d]pyrimidin-4-yl)piperazin-2-yl)acetonitrile], on KRas G12C, the POC result was “C (“C”>50% POC)”. The 50% inhibitory concentration (IC50) in experiment [1] (NCI-H358, 3 h) lay within 0.1 to 1000 nM.

(Values after patent US10125134B2 (Mirati Therapeutics, Inc., priority 2016, dated 2018).)
